Experimental findings from patent US5733927A, “Salts of glucopyranose derivative and solutions of the same” (Ono Pharmaceutical Co., Ltd., priority 1992, dated 1998) are described below.

Values after ≈ are worked out from the molar mass of the structure shown. Counter-ions that a name gives are not always drawn. Where only a bound is given, the exact number is not on record here.

The nature of data set [1]: Solubility in a mixture of water-ethanol (1:1) at 25° C. (Table 1). It is filed as physicochemical.
The nature of data set [2]: Solubility for injectable solvents / the solvent for the administration (stated in words). The note with it: for solubility for the solvent for the administration: compared with the mixture of salts of the formula (B) and calcium salt. The class given is physicochemical.
Data set [3] in a line: Pharmacological activity (lipid A-like activity; stated in words, no test described). The following applies: sufficiency for use as a pharmaceutical agent.

A word on the Solubility: it is the dissolved amount per volume that the medium holds. With `CCCCCCCCCCC[C@@H](CC(=O)N[C@H]1C(O)O[C@H](CO)[C@@H](OS(=O)(=O)O)[C@@H]1OC(=O)CCCCCCCCc1ccccc1)OC(=O)CCCCCCCCc1ccccc1` (mixture of isomers) [Reference example 5, mixture salt of calcium, sodium and magnesium of 2-deoxy-2-[(3S)-(9-phenylnonanoyloxy)tetradecanoyl]amino-3-O-(9-phenylnonanoyl)-4-O-sulfo-D-glucopyranose, reference compound], in data set [1], the Solubility worked out at 1.5 mg/mL. Take `CCCCCCCCCCC[C@@H](CC(=O)N[C@H]1C(O)O[C@H](CO)[C@@H](OS(=O)(=O)O)[C@@H]1OC(=O)CCCCCCCCc1ccccc1)OC(=O)CCCCCCCCc1ccccc1` (single isomer, unassigned) [Example 3]: in data set [1], the Solubility amounted to 212 mg/mL (≈ 231 mM). Also, the “solubility for the solvent for the administration” value in data set [2] is on record as “very good solubility”. Turning to `CCCCCCCCCCC[C@@H](CC(=O)N[C@H]1C(O)O[C@H](CO)[C@@H](OS(=O)(=O)O)[C@@H]1OC(=O)CCCCCCCCc1ccccc1)OC(=O)CCCCCCCCc1ccccc1` (single isomer, unassigned) [Example 4], the Solubility in data set [1] was > 270 mg/mL. Moreover, in data set [2], the “solubility for the solvent for the administration” value was “very good solubility”. In the case of `CCCCCCCCCCC[C@@H](CC(=O)N[C@H]1C(O)O[C@H](CO)[C@@H](OS(=O)(=O)O)[C@@H]1OC(=O)CCCCCCCCc1ccccc1)OC(=O)CCCCCCCCc1ccccc1` (stereo partly drawn) [formula (Aa), 2-Deoxy-2-[(3S)-(9-phenylnonanoyloxy)tetradecanoyl]amino-3-O-(9-phenylnonanoyl)-4-O-sulfo-D-glucopyranose, reference compound], the pharmacological activity entry in data set [3] is listed as “sufficient pharmacological activity”. Also, the “solubility for injectable solvents” value in data set [2] (injectable solvents) was “very poor”.
